Values of other authors, collected in patent US20110040266A1, “ANTI-INSOMNIA COMPOSITIONS AND METHODS” (priority 2007, published 2011).

Conditions: tablet form; administered from 5 hours to 1 hour before waking

For `Cc1ccc(-c2nc3ccc(C)cn3c2CC(=O)N(C)C)cc1` [zolpidem, N,N,6-trimethyl-2-p-tolyl-imidazo[1,2-a]pyridine-3-acetamide], the “residual effects of night-time dosing” value is given as “results in residual drowsiness and sleepiness”.
